Nine compounds from patent US20100004443A1, “LINEAR PYRIDAZINE AND PYRROLE COMPOUNDS, METHOD FOR OBTAINING THEM AND APPLICATIONS” (CENTRE NATIONAL DE LA RECHERCHE SCIENTIFIQUE (C.N., priority 2006, published 2010) can be followed below.

One data set concerns Candida albicans. Put plainly: Parasitology, Candida albicans. The conditions noted are these: read-out: Parasitology IC50 or 80 Candida albicans. It counts as cell-based.
For another data set, the system named is KB cells. Put plainly: Cytotoxicity on KB cells. It counts as cell-based.
Another data set concerns Leishmania mexicana. Put plainly: Parasitology, Leishmania mexicana. It counts as cell-based. The conditions noted are these: read-out: Parasitology IC50 or 80 Leishmania mexicana.
In data set [1] the test system is KB, Caco, Huh7 and fibroblast cells. As to the kind of experiment: in vitro cytotoxicity test on KB, Caco, Huh7 and fibroblast cells. The format is cell-based. The text has this: Preferably, the cancer concerned by the invention is a carcinoma, for instance a carcinoma of the ear, nose or throat, of the lungs, of the uterus, of the digestive system (oesophagus, colon, liver), of the skin, of the breasts, of the prostate, of the ovaries, etc.

A further data set in a line: Cytotoxicity on KB cells. The format is cell-based. To be noted: human, KB cells.
Another data set addresses tonB protein (Escherichia coli, UniProt P02929). Put plainly: Effect on tonB protein (iron transfer for bacterial growth).
In another data set the test system is E. coli. As to the kind of experiment: Inhibition of the growth of E. coli. It counts as cell-based.
Where [2] appears, read: second value (cell beside the first).

Values after ≈ are worked out from the molar mass of the structure shown. Values joined by “and” are separate entries in the source; they are usually repeats but may differ in a detail not shown here. Identical values can stand only once.

tonB protein, sequence (P02929 whole entry): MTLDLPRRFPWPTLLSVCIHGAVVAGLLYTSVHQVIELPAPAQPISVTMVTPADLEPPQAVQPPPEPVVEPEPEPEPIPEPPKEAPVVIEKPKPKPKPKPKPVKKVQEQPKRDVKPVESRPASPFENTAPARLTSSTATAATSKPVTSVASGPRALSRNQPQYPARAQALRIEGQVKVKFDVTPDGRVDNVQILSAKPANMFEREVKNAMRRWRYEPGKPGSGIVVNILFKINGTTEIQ

In the case of `Cc1cccc(-c2ccc(-c3ccc(-c4cccc(C)n4)nn3)nn2)n1` [Compound 2, 6,6′-bis(6-methylpyridin-2-yl)-3,3′-bipyridazine], the IC50 in the data set with Candida albicans is 62 µM and 25.9 µg/mL; with Leishmania mexicana it was 2.2 µM and 0.91 µg/mL. Besides, the “KB cells Cytotoxicity % inhibition à [10^−5]” value was 23% in the data set on KB cells (first value) and 12% in the data set on KB cells (setting [2]).
As to `S=c1ccc(-c2ccccn2)n[nH]1` [Compound 10, 6-(pyridin-2-yl)-2H-pyridazin-3-thione], the “cytotoxic activity in a cancerous cell model” value (“cytotoxic activity” for short) in data set [1] is “very high levels of cytotoxic activity”. Further, the “KB cells Cytotoxicity % inhibition à [10^−5]” value with KB cells (first value) is reported as 84%; with KB cells (setting [2]), 74%.
Turning to `c1ccc(-c2ccc(-c3ccc(-c4ccccn4)nn3)nn2)nc1` [Compound 19, 6,6′-bis(pyridin-2-yl)-3,3′-bipyridazine], the “KB cells Cytotoxicity % inhibition à [10^−5]” value in the data set on KB cells (first value) was 16%.
`C=C(OCC)c1ccc(-c2ccc(C(=C)OCC)nn2)nn1` [Compound 24, 6,6′-di-(1-ethoxyvinyl)-3,3′-bipyridazine]: the “cytotoxic activity” value in data set [1] is given as “very high levels of cytotoxic activity”. Besides, the half-maximal inhibitory concentration (IC50) in the data set “Cytotoxicity on KB cells” was 1.23 µM and 0.37 µg/mL; in the data set with KB cells (Homo sapiens, KB, read-out: IC50 on KB cancerous cells) it was 0.3 µg/mL (≈ 1.01 µM). Also, the “KB cells Cytotoxicity % inhibition à [10^−5]” value in the data set on KB cells (first value) was determined as 96%; with KB cells (setting [2]), 95%. Further, the “effect on the tonB protein” value on tonB protein was “affects the tonB protein”. Further, the “inhibition of the growth of E. coli” value with E. coli is “able to inhibit the growth of E. coli”.
Regarding `Cc1cccc(-c2ccc(-c3ccccn3)nn2)n1` [Compound 44, 3-(6-methylpyridin-2-yl)-6-(pyridin-2-yl)pyridazine], the “cytotoxic activity” value in data set [1] is “very high levels of cytotoxic activity”. In addition, the IC50 is 600 nM and 0.15 µg/mL in the data set with Candida albicans; < 1 µM and < 0.25 µg/mL with Leishmania mexicana. For the same compound, the entries for the “KB cells Cytotoxicity % inhibition à [10^−5]” value with KB cells (first value) and in the data set with KB cells (setting [2]) were 11% and 21%, respectively.
For the compound `O=C(O)c1cccc(-c2ccc(-c3ccccn3)nn2)n1` [Compound 45, 3-(2-carboxypyridin-6-yl)-6-(pyridin-2-yl)-pyridazine], the IC50 in the data set with Candida albicans was above 100 µM; in the data set with Leishmania mexicana it was 14 µM and 3.9 µg/mL. Also, the “KB cells Cytotoxicity % inhibition à [10^−5]” value with KB cells (first value) was determined as 9%; in the data set with KB cells (setting [2]), 3%.
On to `O=C(O)c1cccc(-c2ccc(-c3cccc(C(=O)O)n3)nn2)n1` [Compound 48, 3,6-bis(2-carboxypyridin-6-yl)-pyridazine], for which the half-inhibitory concentration (IC50) with Candida albicans was > 100 µM and ≥ 32.2 µg/mL; in the data set with Leishmania mexicana, 3 µM and 0.96 µg/mL. Further, the “KB cells Cytotoxicity % inhibition à [10^−5]” value in the data set with KB cells (first value) is 21%.
For the compound `CCCCc1cc(-c2ccccn2)[nH]c1-c1ccccn1` [Compound 68], in the data set on KB cells (first value), the “KB cells Cytotoxicity % inhibition à [10^−5]” value was found to be 43%.
With `c1ccc(-c2ccc(-c3ccccn3)nn2)nc1` [Compound 80, 3,6-bispyridin-2-ylpyridazine], the “cytotoxic activity” value in data set [1] is reported as “very high levels of cytotoxic activity”.

In general, IC50 refers to the concentration that gives 50% inhibition.
